Results taken from US7928106B2, “Aza-pyridopyrimidinone derivatives” (Hoffmann-La Roche Inc., priority 2007, dated 2011).

Molecular target: T1, HM74A receptor (Homo sapiens, UniProt Q8TDS4)
T1 construct: expressed in transfected cells; host or cells: HEK-293 cells (stably transfected), membrane preparation
Assay: Primary radiolabelled ligand competition binding assay ([3H]-nicotinic acid)
Details: inhibition of [3H]-nicotinic acid binding, membranes of HEK-293 cells stably transfected with the HM74A receptor
Protocol: Primary Radiolabelled Ligand Competition Binding Assay
Nicotinic acid binding assays were performed with membrane preparations. A cell pellet containing 1×10^8 HEK-293 cells, stably transfected with the HM74A receptor, was resuspended in 3 ml of ice cold Dounce Buffer (10 mM Tris-Cl pH 7.6, 0.5 mM MgCl2) supplemented with Roche protease inhibitor cocktail and homogenized at high speed on a Polytron homogenizer two times for 20 sec on ice. Nuclei and unbroken cells were removed by centrifugation for 5 min at 1,000×g after the addition of 1 ml of tonicity restoration buffer (10 mM Tris pH 7.6, 0.5 mM MgCl2, 600 mM NaCl). The homogenate was centrifuged at 60,000×g for 30 min and pellets were resuspended in Tris buffer (50 mM Tris pH 7.4, containing protease inhibitors). Binding reactions contained 20 µg membranes as determined by BCA protein assay (Pierce), 50 nM [^3H]-nicotinic acid (Amersham) with or without compound addition in 250 μl of binding buffer (50 mM Tris pH 7.4, 2 mM MgCl2, 0.02% CHAPS). […] Bound [^3H]-nicotinic acid was determined by scintillation counting using Top Count NXT (PerkinElmer). […] The effects of compounds were expressed as % inhibition of [^3H]-nicotinic acid binding. Sigmoidal curves were fitted using the XLfit3 program (ID Business Solutions Ltd. UK) and IC50 values determined.

T1 sequence (Q8TDS4 whole entry): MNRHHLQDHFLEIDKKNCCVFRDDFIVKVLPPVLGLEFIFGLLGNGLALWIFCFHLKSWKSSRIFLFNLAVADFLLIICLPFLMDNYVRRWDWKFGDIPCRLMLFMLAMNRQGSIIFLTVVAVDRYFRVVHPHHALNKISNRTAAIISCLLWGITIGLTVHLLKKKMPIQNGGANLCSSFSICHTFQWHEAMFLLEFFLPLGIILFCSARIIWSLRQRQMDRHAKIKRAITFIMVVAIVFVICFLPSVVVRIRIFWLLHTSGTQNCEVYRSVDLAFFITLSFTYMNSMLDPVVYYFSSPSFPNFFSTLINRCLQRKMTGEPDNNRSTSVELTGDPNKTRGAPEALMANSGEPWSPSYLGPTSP

IC50 [nM]	Compound
2390	O=c1[nH]c(COCCc2cc(F)ccc2F)nc2nccnc12 [Example 2, 2-[2-(2,5-Difluoro-phenyl)-ethoxymethyl]-3H-pteridin-4-one]
668	O=c1[nH]c(COCCc2cccc(Cl)c2)nc2nnccc12 [Example 7, 7-[2-(3-Chloro-phenyl)-ethoxymethyl]-6H-pyrimido[4,5-c]pyridazin-5-one]
